Experimental data: patent US4376778A, “Antibiotic substances and processes for production thereof” (Meiji Seika Kaisha, Ltd., priority 1979, dated 1983)
Converted amounts (≈) assume the structure as drawn.

Experiments:
[1] = tested on: Staphylococcus aureus FDA 209P JC-1; assay: MIC by agar dilution method, Staphylococcus aureus FDA 209P JC-1; type: cell-based; settings: FDA209P; Staphylococcus aureus FDA 209P JC-1, agar dilution; read-out: Minimum Inhibitory Concentration
From the text: (§1) The minimum inhibitory concentrations of the SF-2080A substance and SF-2080B substance against various microorganisms as measured by the agar dilution method are shown in Table 4 below.

[2] = tested on: Staphylococcus aureus Smith; assay: MIC by agar dilution method, Staphylococcus aureus Smith; type: cell-based; settings: read-out: Minimum Inhibitory Concentration
From the text: as §1

[3] = tested on: Staphylococcus epidermidis ATCC 14990; assay: MIC by agar dilution method, Staphylococcus epidermidis ATCC 14990; type: cell-based; settings: ATCC14990; Staphylococcus epidermidis ATCC 14990, agar dilution; read-out: Minimum Inhibitory Concentration
From the text: as §1

[4] = tested on: Bacillus subtilis ATCC 6633; assay: MIC by agar dilution method, Bacillus subtilis ATCC 6633; type: cell-based; settings: ATCC6633; Bacillus subtilis ATCC 6633, agar dilution; read-out: Minimum Inhibitory Concentration
From the text: as §1

[5] = tested on: Escherichia coli NIHJ JC-2; assay: MIC by agar dilution method, Escherichia coli NIHJ JC-2; type: cell-based; settings: NIHJJC2; Escherichia coli NIHJ JC-2, agar dilution; read-out: Minimum Inhibitory Concentration
From the text: as §1

[6] = tested on: Escherichia coli K-12 IAM 1264; assay: MIC by agar dilution method, Escherichia coli K-12 IAM 1264; type: cell-based; settings: IAM1264; Escherichia coli K-12 IAM 1264, agar dilution; read-out: Minimum Inhibitory Concentration
From the text: as §1

Salmonella typhi O-901-W = assay: MIC by agar dilution method, Salmonella typhi O-901-W; type: cell-based; settings: Salmonella enterica, read-out: Minimum Inhibitory Concentration
[7] = tested on: Shigella dysenteriae Shigae; assay: microbe, parasite or virus in culture; type: cell-based; settings: read-out: Minimum Inhibitory Concentration
[8] = tested on: Klebsiella pneumoniae ATCC 27763; assay: MIC by agar dilution method, Klebsiella pneumoniae ATCC 27763; type: cell-based; settings: ATCC27763; Klebsiella pneumoniae ATCC 27763, agar dilution; read-out: Minimum Inhibitory Concentration
From the text: as §1

Proteus vulgaris OX-19 = assay: MIC by agar dilution method, Proteus vulgaris OX-19; type: cell-based; settings: OX19; Proteus vulgaris OX-19, agar dilution; read-out: Minimum Inhibitory Concentration
From the text: as §1

[9] = tested on: Serratia marcescens No. 1; assay: MIC by agar dilution method, Serratia marcescens No. 1; type: cell-based; settings: Serratia marcescens No. 1, agar dilution; read-out: Minimum Inhibitory Concentration
From the text: as §1

[10] = tested on: Pseudomonas aeruginosa IAM 1007; assay: MIC by agar dilution method, Pseudomonas aeruginosa IAM 1007; type: cell-based; settings: IAM1007; Pseudomonas aeruginosa IAM 1007, agar dilution; read-out: Minimum Inhibitory Concentration
From the text: as §1

[11] = tested on: Cryptococcus neoformans Cr-1; assay: MIC by agar dilution method, Cryptococcus neoformans Cr-1; type: cell-based; settings: CR1; Cryptococcus neoformans Cr-1, agar dilution; read-out: Minimum Inhibitory Concentration
From the text: as §1

Trichophyton asteroides [12] = assay: MIC by agar dilution method, Trichophyton asteroides; type: cell-based; settings: read-out: Minimum Inhibitory Concentration
From the text: as §1

[13] = tested on: Trichophyton interdigital; assay: MIC by agar dilution method, Trichophyton interdigital; type: cell-based; settings: read-out: Minimum Inhibitory Concentration
From the text: as §1

Aspergillus fumigatus [14] = assay: MIC by agar dilution method, Aspergillus fumigatus; type: cell-based; settings: read-out: Minimum Inhibitory Concentration
From the text: as §1

Pyricularia oryzae = assay: microbe, parasite or virus in culture; type: cell-based; settings: read-out: Minimum Inhibitory Concentration
Diaporthe citri = assay: MIC by agar dilution method, Diaporthe citri; type: cell-based; settings: read-out: Minimum Inhibitory Concentration
From the text: as §1

various microorganisms = assay: Agar dilution method, various microorganisms (overall statement); type: cell-based; settings: overall statement in words
From the text: as §1

Candida albicans C-A-24 = assay: MIC by plate dilution method, Candida albicans C-A-24; type: cell-based; settings: CA24; Candida albicans C-A-24, plate dilution; read-out: minimum growth inhibitory concentration (MIC)
From the text: (§2) The minimum growth inhibitory concentration (MIC) against each test strain according to the plate dilution method is shown below: […]

[15] = tested on: Cryptococcus neoformans Cr-1; assay: MIC by plate dilution method, Cryptococcus neoformans CR-1; type: cell-based; settings: CR1; Cryptococcus neoformans CR-1, plate dilution; read-out: minimum growth inhibitory concentration (MIC)
From the text: as §2

Trichophyton asteroides [16] = assay: MIC by plate dilution method, Trichophyton asteroides; type: cell-based; settings: read-out: minimum growth inhibitory concentration (MIC)
From the text: as §2

[17] = tested on: Trichophyton interdigitale; assay: MIC by plate dilution method, Trichophyton interdigitale; type: cell-based; settings: read-out: minimum growth inhibitory concentration (MIC)
From the text: as §2

Aspergillus fumigatus [18] = assay: MIC by plate dilution method, Aspergillus fumigatus; type: cell-based; settings: read-out: minimum growth inhibitory concentration (MIC)
From the text: as §2

fungi = assay: Plate dilution method, fungi (overall statement); type: cell-based; settings: overall statement in words
From the text: as §2

[19] = Acute toxicity by intraperitoneal administration in mice; settings: mouse, in vivo, ip
Solubility = type: physicochemical
Trichophyton asteroides [20] = assay: Infection treatment test of guinea pigs infected by Trichophyton asteroides, observation with the naked eye; type: in vivo, Trichophyton asteroides; guinea pig; settings: for Effect on flush / Effect on scale / Effect on thickening of the affected skin: guinea pig, 1% solution, topical, once a day for 8 days, naked eye
Method: (§3) An infection treatment test of guinea pigs infected by a strain of Trichophyton asteroides on their backs was carried out using the liquid preparation having formulation as shown in Table 6.
(§4) Hairs were pulled off from a white Hartly guinea pig (4 guinea pigs per group) at 4 areas of the back thereof (2 areas on each side, 4×6 cm) and a Trichophyton asteroides-floating solution (liquid Sabouraud's culture medium; number of living cells: 2×10^7 /ml) was infected with a brush in an amount of 0.5 ml per each area. After 2 days from the infection, 0.25 ml of a 1% solution of SF-2080A substance (see Table 6) was applied at one area on each side, once a day and continuously for 8 days.
(§5) The same procedure as above was carried out, except using a 1% solution of pyrrolnitrin and a 1% solution of clotrimazole. Guinea pigs so treated were compared with those to which no treatment was applied.

Trichophyton asteroides [21] = assay: Infection treatment test of guinea pigs infected by Trichophyton asteroides, infected organism cultivation positive ratio; type: in vivo, Trichophyton asteroides; guinea pig; settings: for infected organism cultivation positive ratio: after 8 days treatment, 1% solution, guinea pig
Method: as §3, §4, §5
After treatment for 8 days, 3 skin pieces were collected from each affecte area and cultivated on a Sabouraud's agar plate for 7 days to observe the infected organism cultivation positive ratio.

[22] = as compared with pyrrolnitrin and clotrimazole, statement in words

Compound	MIC [1] [µg/mL]	MIC [2] [µg/mL]	MIC [3] [µg/mL]	MIC [4] [µg/mL]	MIC [5] [µg/mL]	MIC [6] [µg/mL]	MIC (Salmonella typhi O-901-W) [µg/mL]	MIC [7] [µg/mL]	MIC [8] [µg/mL]	MIC (Proteus vulgaris OX-19) [µg/mL]	MIC [9] [µg/mL]	MIC [10] [µg/mL]	MIC [11] [µg/mL]	MIC (Trichophyton asteroides [12]) [µg/mL]	MIC [13] [µg/mL]	MIC (Aspergillus fumigatus [14]) [µg/mL]	MIC (Pyricularia oryzae) [µg/mL]	infected organism cultivation positive ratio (Trichophyton asteroides [21]; day of cultivation 3) [%]	infected organism cultivation positive ratio (Trichophyton asteroides [21]; day of cultivation 5) [%]	infected organism cultivation positive ratio (Trichophyton asteroides [21]; day of cultivation 7) [%]	also measured
O=[N+]([O-])c1c[nH]c(Cl)c1Cl [SF-2080A substance]	1.56 (≈ 8.62 µM)	3.13 (≈ 17.3 µM)	3.13 (≈ 17.3 µM)	1.56 (≈ 8.62 µM)	6.25 (≈ 34.5 µM)	6.25 (≈ 34.5 µM)	6.25 (≈ 34.5 µM)	3.13 (≈ 17.3 µM)	6.25 (≈ 34.5 µM)	6.25 (≈ 34.5 µM)	6.25 (≈ 34.5 µM)	6.25 (≈ 34.5 µM)	25 (≈ 138 µM)	3.12 (≈ 17.2 µM)	1.56 (≈ 8.62 µM)	25 (≈ 138 µM)	0.8 (≈ 4.42 µM)	25	37	37	MIC (Diaporthe citri): 0.8 µg/mL (≈ 4.42 µM); antibacterial/antimicrobial effectiveness against the strains tested (various microorganisms): generally effective against all strains of bacteria tested; MIC (Candida albicans C-A-24): 100 µg/mL (≈ 553 µM); MIC [15]: 25 µg/mL (≈ 138 µM); MIC (Trichophyton asteroides [16]): 3.12 µg/mL (≈ 17.2 µM); MIC [17]: 1.56 µg/mL (≈ 8.62 µM); MIC (Aspergillus fumigatus [18]): 25 µg/mL (≈ 138 µM); inhibition of growth of fungi (fungi): inhibits the growth of fungi; acute toxicity, survival ([19]; 10 mg/kg): all mice survived; acute toxicity, mortality ([19]; 30 mg/kg): all mice died; Solubility in acetone (Solubility): easily soluble; Solubility in chloroform (Solubility): soluble; Solubility in methanol (Solubility): easily soluble; therapeutic effect, observation with the naked eye (Trichophyton asteroides [20]; [22]): excellent therapeutic effects; treatment effect in thickening of the affected skin, flush, and scale (Trichophyton asteroides [20]; compared with 1% pyrrolnitrin and 1% clotrimazole, statement in words): best treatment effect; therapeutic effect, cultivation positive ratio (Trichophyton asteroides [21]; [22]): excellent therapeutic effects; decrease in the cultivation positive ratio (Trichophyton asteroides [21]; compared with pyrrolnitrin-dosed, clotrimazole-dosed and no treatment groups, in words): evident decrease
O=[N+]([O-])c1c(Cc2cc(Cl)cc(Cl)c2O)[nH]c(Cl)c1Cl [SF-2080B substance]	0.2 (≈ 0.562 µM)	0.2 (≈ 0.562 µM)	0.1 (≈ 0.281 µM)	0.1 (≈ 0.281 µM)	100 (≈ 281 µM)	100 (≈ 281 µM)	50 (≈ 140 µM)	50 (≈ 140 µM)	> 100	0.78 (≈ 2.19 µM)	> 100	> 100	> 100	> 100	100 (≈ 281 µM)	> 100	3.13 (≈ 8.79 µM)				MIC (Diaporthe citri): 0.4 µg/mL (≈ 1.12 µM); antibacterial/antimicrobial effectiveness against the strains tested (various microorganisms): very effective against a limited number of strains, but it is less active or lacks toward the others; acute toxicity, fraction of mice that survived ([19]; 100 mg/kg): 2/3; Solubility in acetone (Solubility): easily soluble; Solubility in chloroform (Solubility): soluble; Solubility in methanol (Solubility): easily soluble
Clc1ccccc1C(c1ccccc1)(c1ccccc1)n1ccnc1 [clotrimazole]																		75	96	96	Effect on flush (Trichophyton asteroides [20]): Ineffective; Effect on scale (Trichophyton asteroides [20]): Effective; Effect on thickening of the affected skin (Trichophyton asteroides [20]): Effective
O=[N+]([O-])c1c(Cl)cccc1-c1c[nH]cc1Cl [pyrrolnitrin]																		62	87	87	Effect on flush (Trichophyton asteroides [20]): Ineffective; Effect on scale (Trichophyton asteroides [20]): Ineffective; Effect on thickening of the affected skin (Trichophyton asteroides [20]): Effective
